This note sets out measurements from PubChem BioAssay (NCI).

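Dose response: 5 concentrations. Exposure: 48 h. Format: 96-well plates. Endpoint: linear interpolation; highest concentration if not reached. Abbreviation: GI50, concentration required for 50% inhibition of growth. TGI marks complete inhibition of growth.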

Test systems include OVCAR-4 ovarian; MDA-MB-435; OVCAR-5 ovarian; PC-3 prostate; HCT-15 colon; K-562 leukemia; COLO 205 colon; SF-268 CNS; SK-OV-3 ovarian; SNB-19 CNS.
Common to all, as to experiment: inhibition of tumour cell growth, NCI panel, 48 h

Take `COc1cc(CNc2oc(-c3ccccc3)c(-c3ccccc3)c2C#N)cc(CN2CCN(C)CC2)c1O`: the GI50 in the assay on OVCAR-4 ovarian is 1.86 µM; with MDA-MB-435, 1.77 µM; in the assay with OVCAR-5 ovarian it was 1.73 µM; in the assay with PC-3 prostate it was 1.87 µM; in the assay on HCT-15 colon it was 1.32 µM; in the assay with K-562 leukemia, 1.51 µM. Further, the GI50 is 1.98 µM in the assay with COLO 205 colon, 1.79 µM in the assay with SF-268 CNS, 2.22 µM in the assay on SK-OV-3 ovarian and 1.81 µM in the assay with SNB-19 CNS. In addition, the TGI in the assay on OVCAR-4 ovarian was found to be 3.99 µM; in the assay with MDA-MB-435, 3.26 µM; with OVCAR-5 ovarian, 3.55 µM; in the assay on PC-3 prostate, 4.09 µM; with HCT-15 colon it was 2.77 µM; in the assay with K-562 leukemia, 4.16 µM. Further, the TGI with COLO 205 colon came to 4.05 µM; in the assay with SF-268 CNS, 3.7 µM; in the assay on SK-OV-3 ovarian, 4.06 µM; with SNB-19 CNS, 3.33 µM.
As for `CC[C@H](C)[C@H](NC(=O)c1cccn1C)C(=O)N(C)[C@H](C[C@@H](OC(C)=O)c1nc(C(=O)N[C@@H](Cc2ccccc2)C[C@H](C)C(=O)OC)cs1)C(C)C`, the GI50 with OVCAR-4 ovarian was 0.68 µM; in the assay on MDA-MB-435 it was 0.0348 µM; with OVCAR-5 ovarian it was 0.65 µM; in the assay with PC-3 prostate, 0.141 µM; with HCT-15 colon it was 0.337 µM; with K-562 leukemia it was 0.177 µM. Moreover, the GI50 in the assay with COLO 205 colon was 0.15 µM; in the assay on SF-268 CNS it was 0.351 µM; in the assay on SK-OV-3 ovarian, 0.124 µM; in the assay on SNB-19 CNS, 0.196 µM. Further, the TGI in the assay on OVCAR-4 ovarian was more than 33.3 µM; with MDA-MB-435 it was 0.168 µM; with OVCAR-5 ovarian it was more than 33.3 µM; with PC-3 prostate, more than 33.3 µM; with HCT-15 colon it was more than 33.3 µM; in the assay with K-562 leukemia, more than 33.3 µM. Further, the TGI in the assay on COLO 205 colon was 0.576 µM; with SF-268 CNS, more than 33.3 µM; in the assay on SK-OV-3 ovarian, more than 33.3 µM; in the assay with SNB-19 CNS it was more than 33.3 µM.
Consider `COc1cc(NCCCCCN=C(N)NC(N)=NC(C)C)c2ncccc2c1`, for which the GI50 in the assay with OVCAR-4 ovarian is 0.0363 µM; in the assay with MDA-MB-435 it was 3.61 µM; in the assay with OVCAR-5 ovarian, 6.09 µM; in the assay on PC-3 prostate, 0.972 µM; in the assay with HCT-15 colon, 34.1 µM; with K-562 leukemia, 0.607 µM. Moreover, the GI50 was 0.468 µM in the assay with COLO 205 colon, 0.689 µM in the assay on SF-268 CNS, 10.9 µM with SK-OV-3 ovarian and 2.56 µM with SNB-19 CNS. The TGI is 0.633 µM in the assay with OVCAR-4 ovarian; 14.7 µM with MDA-MB-435; 20.2 µM with OVCAR-5 ovarian; 13.8 µM in the assay on PC-3 prostate; more than 100 µM with HCT-15 colon; 19.3 µM with K-562 leukemia. Further, the TGI with COLO 205 colon is 1.74 µM; in the assay with SF-268 CNS it was 13.8 µM; with SK-OV-3 ovarian, 23.5 µM; in the assay on SNB-19 CNS, 12.8 µM.
For `CCN(Cc1c(F)cccc1Cl)c1ccc(CO)c(Cl)c1`, the GI50 in the assay with OVCAR-4 ovarian is 0.0648 µM; with MDA-MB-435, 10.9 µM; in the assay with PC-3 prostate, 12 µM; with HCT-15 colon, 10 µM; with K-562 leukemia it was 0.2 µM; in the assay with COLO 205 colon, 0.694 µM. The GI50 in the assay with SF-268 CNS was 16.4 µM; with SK-OV-3 ovarian it was 2.52 µM; in the assay on SNB-19 CNS, 15.7 µM. For the same compound, the TGI in the assay on OVCAR-4 ovarian is 0.661 µM; in the assay on MDA-MB-435, 24.3 µM; with OVCAR-5 ovarian, 0.106 µM; with PC-3 prostate it was 25.1 µM; with HCT-15 colon, 24.7 µM; in the assay on K-562 leukemia it was 12.6 µM. Moreover, the TGI in the assay with COLO 205 colon stood at 6.13 µM; in the assay on SF-268 CNS, 31.4 µM; in the assay on SK-OV-3 ovarian it was 13 µM; in the assay with SNB-19 CNS it was 40.1 µM.
For the compound `CNC(=O)c1cncc(/C=C/c2ccccc2Cl)c1`, the GI50 in the assay on OVCAR-4 ovarian, in the assay on MDA-MB-435, in the assay on OVCAR-5 ovarian, with PC-3 prostate, in the assay with HCT-15 colon and with K-562 leukemia was more than 25 µM in each case. In addition, the GI50 with COLO 205 colon, in the assay with SF-268 CNS, in the assay on SK-OV-3 ovarian and in the assay with SNB-19 CNS was more than 25 µM throughout. The TGI with OVCAR-4 ovarian, in the assay with MDA-MB-435, in the assay with OVCAR-5 ovarian, in the assay with PC-3 prostate, in the assay with HCT-15 colon and in the assay on K-562 leukemia was more than 25 µM each time. The TGI in the assay on COLO 205 colon, in the assay with SF-268 CNS, with SK-OV-3 ovarian and with SNB-19 CNS was more than 25 µM each time.
For the compound `O=C1NC(c2ccccc2)C2(C(=O)O)CN(C3CC3)c3cc(N4CCNCC4)c(F)cc3C2N1` (centres undefined), the GI50 in the assay on OVCAR-4 ovarian, with MDA-MB-435, with OVCAR-5 ovarian, with PC-3 prostate, in the assay on HCT-15 colon and with K-562 leukemia was more than 100 µM throughout. Further, the GI50 in the assay with COLO 205 colon, with SF-268 CNS, with SK-OV-3 ovarian and with SNB-19 CNS was more than 100 µM each time. Further, the TGI with OVCAR-4 ovarian, in the assay with MDA-MB-435, in the assay with OVCAR-5 ovarian, in the assay on PC-3 prostate, in the assay with HCT-15 colon and with K-562 leukemia was more than 100 µM in each case. Besides, the TGI in the assay on COLO 205 colon, with SF-268 CNS, in the assay with SK-OV-3 ovarian and with SNB-19 CNS was more than 100 µM in each case.
`C=C1CCC2C3(C)COC(c4ccccc4Cl)OC3CCC2(C)C1/C=C/C1=CCOC1=O` (centres undefined): the GI50 was 4.47 µM in the assay with OVCAR-4 ovarian; 9.89 µM in the assay with MDA-MB-435; more than 100 µM in the assay with OVCAR-5 ovarian; 3.17 µM in the assay with PC-3 prostate; 6.6 µM in the assay on HCT-15 colon; 3.61 µM in the assay on K-562 leukemia. Moreover, the GI50 was 17.9 µM in the assay with COLO 205 colon, more than 100 µM with SF-268 CNS, more than 100 µM in the assay with SK-OV-3 ovarian and more than 100 µM with SNB-19 CNS. For the same compound, the TGI with OVCAR-4 ovarian, with MDA-MB-435, in the assay on OVCAR-5 ovarian, in the assay on PC-3 prostate, in the assay with HCT-15 colon and in the assay on K-562 leukemia was more than 100 µM each time. The TGI in the assay with COLO 205 colon, in the assay on SF-268 CNS, in the assay on SK-OV-3 ovarian and with SNB-19 CNS was more than 100 µM each time.
